Consider four substances from publication PMC6962393, “Targeting the tumor vasculature with engineered cystine-knot miniproteins” (Nature Communications, 2020).

Assay [1] relates to EDB in U-87 MG glioblastoma xenograft tumor sections. Kind of assay: Immunofluorescence staining of U-87 MG tumor tissue sections. Also noted: species or system human U-87 MG grown as mouse xenograft. The settings on record: biotinylated miniprotein tetramerized with Cy3-labeled streptavidin, 6 µm sections. On the procedure:
Cryopreserved tumor pieces were cut in 6-µm-thick sections, fixed in ice cold acetone for 5 min, and air-dried. Slides were then blocked in PBS with 3% BSA at RT for 5 min. For staining of EDB, 1 µg of the respective biotinylated cystine-knot miniprotein was incubated with 2.9 µg streptavidin-Cy3 conjugate (Rockland Immunochemicals) at RT for 30 min. The pre-formed complex or 0.1 µg AF680-(MC-FN-010)3 and anti-mouse CD31 antibody (RB-10333-P1, Thermo Fisher) diluted 1:100 in PBS with 1% BSA was then added to the tumor sections and incubated for 30 min at 37 °C. Afterwards, slides were washed three times with PBS containing 1% BSA. CD31 staining of sections treated with pre-formed complex was performed with a rat anti-mouse CD31 IgG antibody (102416; BioLegend) diluted 1:100 in PBS with 1% BSA for 30 min at 37 °C and detected with a secondary […] IgG-Cy3 antibody (111-165-003; Jackson ImmunoResearch) diluted 1:400 in PBS with 1% BSA for 30 min at 37 °C. After three washing steps in PBS, cell nuclei were stained with Höchst 33342 (Thermo Fisher Scientific) diluted 1:5000 in PBS for 30 min at RT. Slides were washed again as described above and covered with coverslips in a thin layer of mounting medium (Dako). Images were captured with a Zeiss Apotome microscope (Carl Zeiss) and analyzed with ZEN software (Carl Zeiss).

Assay [2] concerns the target T1, biotinylated human FN-67B89 (Homo sapiens, UniProt P02751).
T1 construct: flanked by its surrounding type III domains (FN-67B89, amino acid G1080-E1455); made in house; host or cells: E. coli BL21 (DE3), pET-21a
In words: Surface plasmon resonance, binding kinetics to FN-67B89. The settings on record: for binding of tag-free variant to FN-67B89 by SPR: Fig 2d, multi-cycle kinetics, 50 to 1000 nM. How it is done:
Binding kinetics of monomeric and trimeric cystine-knot miniprotein ligands to its target protein was determined using a Biacore T-100 device (GE Healthcare Life Science) with PBS-T as running buffer. For this, the biotinylated FN-67B89 protein (200–300 µg/mL) was captured by binding to a flow cell of an SA sensor chip (GE Healthcare Life Science). To analyze monomeric ligands, an immobilized target density of maximum 750 response units (RU) was applied and for trimeric variants a RU of maximum 400 was aimed for. Binding analysis of monomeric ligands was performed using a multi-cycle kinetic method with concentrations ranging from 50 to 4000 nM. A cycle started with an association period of 90 s, followed by a dissociation period of 420 s and a final regeneration step. Kinetic measurement was conducted applying a flow rate of 20 µL/min. Trimeric variants were analyzed under the same association and dissociation conditions, but using the single-cycle kinetic measurement mode in a constant flow of […]. In this case the analyte concentration was between 1.25 and 10 nM. Binding kinetics and steady-state analysis were calculated using a global kinetic fit model (1:1 Langmuir, Biacore T-100 Evaluation Software; GE Healthcare Life Science).
(In general: SPR reads the build-up and loss of mass on a sensor chip optically.)

Assay [3] relates to FN-B. In words: Hit identification ranking score (FN-B to BSA ELISA signal normalized to expression rate). It is filed as binding, human. The following applies: signal (FN-B) to noise (BSA) ELISA ratio normalized to expression rate of Trx-cystine-knot miniprotein; MCopt 1.0 library.
Procedure: Single colonies were picked, sequenced, and transferred to a 96-well plate for small-scale expression in 1 mL autoinduction medium (MagicMedia™; Thermo Fisher Scientific). Protein production was conducted overnight at 30 °C and 220 rpm. Cells were harvested by centrifugation at 3000 × g for 15 min, lysed via incubation in buffer (20 mM Tris, 2 mM MgCl2, 20 mM NaCl, pH 8) containing 0.1 mg/mL lysozyme (Merck Millipore) and 5 U/mL benzonase (Merck Millipore) combined with a freeze–thaw cycle, and heated for 10 min at 80 °C. After a final centrifugation (3000 × g, 15 min, 4 °C) to remove cell debris, the supernatant was collected for E-PAGE™ and binding analysis. E-PAGE^TM (Life Technologies) was used as a high throughput gel system to simultaneously analyze 96-probes in parallel for a quantification of produced and heat-purified proteins. E-PAGE^TM analysis was performed according to the manufacturer's instructions. ELISA was used as a technique to analyze protein–protein interactions. […] The wells were washed three times with PBS-T (1× PBS with 0.1% (w/v) Tween-20), blocked with 1× Casein buffer (Sigma Aldrich) diluted in PBS for 2 h at RT, and washed again as described. 20 µL of supernatant containing the respective heat-purified fusion protein were added to 80 µL PBS-T or 200 nM of MC-Myc-010 fusion protein (wells with anti-c-myc antibody) diluted in PBS-T, applied to the cavities, and incubated for 1 h at 4 °C. After three times of washing with PBS-T, binding of the respective variant was detected with a horseradish peroxidase (HRP)-conjugated anti-S-tag antibody (ab18589 or ab19324; Abcam) 1:2000 diluted in PBS. Enzymatic reaction was measured with TMB as a chromogenic substrate and stopped with 0.2 M HCl after approximately 5 min. The measurement of absorbance at 450 nm was performed using an Infinite M200 PRO Microplate Reader (Tecan). […]
Ranking scores were calculated on the basis of the signal (FN -B) to noise (BSA)
ratios determined via ELISA and were further normalized to the expression rate of Trx -cystine-knot […]
In assay [4] the test system is FN-6789 (type III domains 6–9 without EDB). Kind of assay: ELISA binding of Trx-cystine-knot miniproteins to off-target control FN-6789. Further details: species or system human. The following applies: FN-6789, streptavidin, milk powder, BSA.
[5] abbreviates: SPR Biacore T-100, biotinylated human FN-67B89 on streptavidin chip, PBS-T, 1:1 Langmuir fit.

Where no end group is shown, it is not given here. The star is where a group is joined. Biotin = O=C1N[C@H]2[C@H](CS[C@H]2CCCCC(=O)*)N1

By Kd is commonly meant a measure of binding affinity in units of concentration. Low readings indicate higher affinity, high ones lower affinity.

T1 sequence (P02751 1080-1546): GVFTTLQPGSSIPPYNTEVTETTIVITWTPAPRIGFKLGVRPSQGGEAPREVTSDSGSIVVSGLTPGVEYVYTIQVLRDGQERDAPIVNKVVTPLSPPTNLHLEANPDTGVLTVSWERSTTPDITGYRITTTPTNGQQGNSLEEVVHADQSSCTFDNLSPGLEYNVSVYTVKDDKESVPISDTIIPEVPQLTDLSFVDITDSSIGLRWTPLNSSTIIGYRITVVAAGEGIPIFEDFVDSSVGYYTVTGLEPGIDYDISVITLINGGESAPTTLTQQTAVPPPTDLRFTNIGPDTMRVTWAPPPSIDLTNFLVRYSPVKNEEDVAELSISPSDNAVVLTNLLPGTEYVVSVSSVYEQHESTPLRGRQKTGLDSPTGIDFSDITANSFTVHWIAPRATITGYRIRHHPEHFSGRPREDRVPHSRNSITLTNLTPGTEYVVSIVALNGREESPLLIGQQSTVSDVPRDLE

Turning to “MC-FN-0115-bio: biotinylated MC-FN-0115, tetramerized with Cy3-labeled streptavidin for staining (Biotin-PMCTQRANRIAACRRDSDCTGACICRGNGYCG; also: cystine-knot disulfides, pairing not given here)”, the “staining of U-87 MG tumor sections” value in assay [1] was “did not stain”.
“PMCTQRKNRIRLCRRDSDCTGACICRGNGYCG (also: bicyclic or more (positions not given here)) [MC-FN-010]”: in assay [2], the “binding of tag-free variant to FN-67B89 by SPR” value is “detectable binding activity”. Besides, the “affinity / binding constant towards biotinylated FN-67B89 (range in words)” value in assay [2] (SPR) is on record as “single-digit micromolar range”. In addition, in assay [2] (setting [5]), binding was put at a Kd of 1580 nM and the Koff is 0.07831 s⁻¹. In assay [2] (SPR Biacore T-100, biotinylated human FN-67B89 on streptavidin chip, PBS-T, 1:1 Langmuir fit, monomers multi-cycle, trimers single-cycle), this substance registered a Kon of 49500 M⁻¹ s⁻¹. The Ranking value in assay [3] is reported as 2.6 to 0.6.
“WKCQPTNGYRIRCRRDSDCPGDCICRGNGYCG (also: bicyclic or more (positions not given here)) [MC-FN-030, cystine-knot miniprotein clone from MCopt 1.0 library]”: the “binding of tag-free variant to FN-67B89 by SPR” value in assay [2] is “no detectable binding”. Besides, the Ranking value in assay [3] is 2.7 to 1.6.
For “WTCTKKYPNTISCRRDSDCRVTCICRGNGYCG (also: bicyclic or more (positions not given here)) [MC-FN-020, cystine-knot miniprotein clone from MCopt 1.0 library, without R-I/V-R-(L) motif]”, the “binding to off-target and control proteins” value in assay [4] is reported as “strong binding”. For the same substance, in assay [3], the Ranking value is given as 3.7 to 1.7.
